Results on 23 compounds are retold here after patent US6489364B2, “Antiviral protease inhibitors” (priority 1997, dated 2002).

Values after ≈ are worked out from the molar mass of the structure shown. Where two headings read alike, the source gives them in different places.

The term Ki denotes the dissociation constant of the complex between target and ligand, obtained from inhibition or displacement. A word on the EC50: it is the concentration giving half of the maximal effect. As usually defined, the IC50 is the concentration that inhibits the measured activity by half.

For one assay, the target named is T1, purified HIV proteinase (Human immunodeficiency virus type 1 group M subtype B, UniProt P04585).
T1 construct: purified HIV proteinase
Nature of the assay: biochemical. Here is the method:
Representative compounds were tested for HIV protease activity in a spectrophotometric enzyme assay using the chromogenic substrate His-Lys-Ala-Arg-Val-Leu-p-nitro-Phe-Glu-Ala-Nle-Ser-amide and purified HIV proteinase. The rate of cleavage is followed by continuously registering the change in absorbance at 300 nm. […]

The subject of the next assay is HIV-1. The assay is described as follows: HIV-1 infected MT4 cell culture, XTT assay. The format is cell-based. Here is the method: Compounds are also tested for HIV protease activity in cell culture. MT4 cells grown in RPMI 1640 cell culture medium including 10% fetal calf serum are infected with 10 TCID HIV-1 per 2×10^5 cells and cultured for 6 days. XTT is added and the amount of XTT formazan produced in the following 6 hours represents the number of surviving cells. Results are expressed as the ED50, that is the concentration in μg/ml of the compound of the invention which suppresses viral replication by 50%.

The mark [1] stands for this setting: values in parentheses, affinity constant, read-out: (Ki μM).
Setting [2] is: Human immunodeficiency virus 1, 144 h, second part of Table 1, head EC50, MT4 cells, HIV-1, 6 days, XTT, read-out: EC50.
[3] abbreviates: Human immunodeficiency virus 1, MT4, 144 h.

For `O=C(N[C@H]1c2ccccc2C[C@H]1O)[C@H](OCc1ccc(F)cc1F)[C@H](O)[C@@H](O)[C@@H](OCc1ccc(F)cc1F)C(=O)N[C@H]1c2ccccc2C[C@H]1O` [Example 21, N1,N6-di[(1S,2R)-2-hydroxy-2,3-dihydro-1H-1-indenyl]-(2R,3R,4R,5R)-2,5-di(2,4-difluorobenzyloxy)-3,4-dihydroxyhexanediamide], on purified HIV proteinase (setting [1]), the Ki was found to be 0.38 nM. The EC50 in the assay on HIV-1 (setting [2]) turned out to be 0.1 µg/mL (≈ 0.138 µM).

The compound `CNC(=O)C(NC(=O)C(OCc1ccc(-c2ccccc2)cc1)C(O)C(O)C(OCc1ccc(-c2ccccc2)cc1)C(=O)NC(C(=O)NC)C(C)C)C(C)C` [Example 14, N1,N6-di[(1S)-2-methyl-1-(methylcarbamoylpropyl]-(2R,3R,4R,5R)-2,5-di[(4-phenylbenzyl)oxy]-3,4-dihydroxyhexanediamide] returned a Ki at purified HIV proteinase of 0.67 nM. This compound showed an EC50 with HIV-1 (setting [3]) of 0.04 µg/mL (≈ 0.0522 µM). As to `O=C(N[C@H]1c2ccccc2C[C@H]1O)[C@H](OCc1ccccc1F)[C@H](O)[C@@H](O)[C@@H](OCc1ccccc1F)C(=O)N[C@H]1c2ccccc2C[C@H]1O` [Example 12, N1,N6-di[(1S,2R)-2-hydroxy-2,3-dihydro-1H-1-indenyl]-(2R,3R,4R,5R)-2,5-di(2-fluorobenzyloxy)-3,4-dihydroxyhexanediamide], the Ki on purified HIV proteinase (setting [1]) was determined as 0.13 nM. Further, the EC50 with HIV-1 (setting [2]) was 0.04 µg/mL (≈ 0.0581 µM). In the case of `O=C(N[C@H]1c2ccccc2C[C@H]1O)[C@H](OCc1cccc(F)c1)[C@H](O)[C@@H](O)[C@@H](OCc1cccc(F)c1)C(=O)N[C@H]1c2ccccc2C[C@H]1O` [Example 18, N1,N6-di[(1 S,2R)-2-hydroxy-2,3-dihydro-1H-1-indenyl]-(2R,3R,4R,5R)-2,5-di(3-fluorobenzyloxy)-3,4-dihydroxyhexanediamide], at purified HIV proteinase (setting [1]), the Ki amounted to 50 nM. Besides, the EC50 with HIV-1 (setting [2]) is 0.5 µg/mL (≈ 0.726 µM). The compound `CNC(=O)[C@@H](NC(=O)[C@H](OCc1ccc(C2=C(O)C(=O)CCC2)cc1)[C@H](O)[C@@H](O)[C@@H](OCc1ccc(C2=C(O)C(=O)CCC2)cc1)C(=O)N[C@H](C(=O)NC)C(C)C)C(C)C` [Example 33] came in with a Ki at purified HIV proteinase of 0.5 nM. Also, in the assay with HIV-1 (setting [3]), the EC50 is 0.2 µg/mL (≈ 0.24 µM). For `CCC(C)[C@H](NC(=O)[C@H](OCc1ccccc1)[C@H](O)[C@@H](O)[C@@H](OCc1ccccc1)C(=O)N[C@H](C(=O)NC)C(C)CC)C(=O)NC` (stereo partly drawn) [Example 4, N1,N6-di[(1S)-2-methyl-1-(methylcarbamoyl)butyl]-(2R,3R,4R,5R)-2,5-di(benzyloxy)-3,4-dihydroxyhexanediamide], the Ki at purified HIV proteinase (setting [1]) amounted to 9 nM. For `CNC(=O)C(NC(=O)C(OCc1ccccc1F)C(O)C(O)C(OCc1ccccc1F)C(=O)NC(C(=O)NC)C(C)C)C(C)C` [Example 19, N1,N6-di[(1S)-2-methyl-1-(methylcarbamoyl)propyl]-(2R,3R,4R,5R)-2,5-di[4-(2-fluorobenzyl)oxy]-3,4-dihydroxyhexanediamide], the Ki on purified HIV proteinase (setting [1]) is 0.5 nM. The EC50 in the assay with HIV-1 (setting [2]) came to 0.8 µg/mL (≈ 1.23 µM). Turning to `CNC(=O)C(NC(=O)C(OCc1ccccc1)C(O)C(O)C(OCc1ccccc1)C(=O)NC1c2ccccc2CC1O)C(C)C` [Example 11, N1-[(1S,2R)-2-hydroxy-2,3-dihydro-1H-1-indenyl]-N6-[(1S)-2-methyl-1-(methylcarbamoyl)propyl]-(2R,3R,4R,5R,)-2,5-di(benzyloxy)-3,4-dihydroxyhexanediamide], at purified HIV proteinase (setting [1]), the Ki was 1.2 nM. For the same compound, the EC50 with HIV-1 (setting [2]) was 0.2 µg/mL (≈ 0.316 µM). The matching figures for `O=C(NCc1c(F)cccc1Cl)[C@H](OCc1ccccc1F)[C@H](O)[C@@H](O)[C@@H](OCc1ccccc1F)C(=O)N[C@H]1c2ccccc2C[C@H]1O` [Example 27, N1-[(1S,2R)-2-hydroxy-2,3-dihydro-1H-1-indenyl]-N6-(2-chloro-6-fluorobenzyl)-(2R,3R,4R,5R,)-2,5-di(2-fluorobenzyloxy)-3,4-dihydroxyhexanediamide]: 1.4 nM and 0.8 µg/mL (≈ 1.14 µM). The compound `CC(C)[C@H](NC(=O)[C@H](OCc1ccccc1)[C@H](O)[C@@H](O)[C@@H](OCc1ccccc1)C(=O)N[C@H]1c2ccccc2C[C@H]1O)C(=O)NCc1ccccn1` [Example 28, N1-[(1S,2R)-2-hydroxy-2,3-dihydro-1H-1-indenyl]-N6-[(1S)-2-methyl-1-([2-pyridylmethyl]carbamoyl)propyl]-(2R,3R,4R,5R,)-2,5-di(benzyloxy)-3,4-dihydroxyhexanediamide] returned an EC50 with HIV-1 (second part of Table 1, head EC50, MT4 cells, HIV-1, 6 days, XTT) of 0.2 µg/mL (≈ 0.281 µM). Take `CNC(=O)C(NC(=O)C(CC(O)C(OCc1ccccc1)C(=O)NC(C(=O)NC)C(C)C)OCc1ccccc1)C(C)C` [Example 3, N1,N6-di[(1S)-2-methyl-1-(methylcarbamoyl)propyl]-(2R,3R,5R)-2,5-di(benzaloxy)-3-hydroxyhexanediamide]: the IC50 at purified HIV proteinase (values printed without parentheses, concentration inhibiting enzyme performance by 50%) amounted to 4 nM. As to `CC(C)C(NC(=O)C(OCc1ccccc1)C(O)C(O)C(OCc1ccccc1)C(=O)NC(C(=O)NC1CC1)C(C)C)C(=O)NC1CC1` [Example 8, N1,N6-di[(1S)-2-methyl-1-(cyclopropylcarbamoyl)propyl]-(2R,3 R,4R,5R)-25-di(benzyloxy)-3,4-dihydroxyhexanediamide], on purified HIV proteinase (setting [1]), the Ki turned out to be 3.4 nM.

In turn, `CNC(=O)[C@@H](NC(=O)[C@H](OCc1ccc(-c2ccsc2)cc1)[C@H](O)[C@@H](O)[C@@H](OCc1ccc(-c2ccsc2)cc1)C(=O)N[C@H](C(=O)NC)C(C)C)C(C)C` [Example 15, N1,N6-di[(1S)-2-methyl-1-(methylcarbamoyl)propyl]-(2R,3R,4R,5R)-2,5-di[4-(3-thienyl)benzyloxy]-3,4-dihydroxyhexanediamide] displayed a Ki at purified HIV proteinase of 1.2 nM. Further, the midpoint of the response in the assay on HIV-1 (setting [3]), the EC50, lay at 0.03 µg/mL (≈ 0.0385 µM). Take `CNC(=O)[C@@H](NC(=O)[C@H](OCc1ccccc1)[C@H](O)[C@@H](O)[C@@H](OCc1ccccc1)C(=O)N[C@H](C(=O)NC)c1ccccc1)c1ccccc1` [Example 16, N1,N6-di[(1S)-1-phenyl-1-(methylcarbamoyl)methyl]-(2R,3R,4R,5R)-2,5-di(benzyloxy)-3,4-dihydroxyhexanediamide]: on purified HIV proteinase (read-out: (Ki μM)), the Ki stood at 2.3 nM. Besides, the response in the assay on HIV-1 (setting [3]) was half-maximal at 1 µg/mL (≈ 1.46 µM) (EC50). For the compound `CNC(=O)[C@@H](NC(=O)[C@H](OCc1ccc(-c2cccc([N+](=O)[O-])c2)cc1)[C@H](O)[C@@H](O)[C@@H](OCc1ccc(-c2cccc([N+](=O)[O-])c2)cc1)C(=O)N[C@H](C(=O)NC)C(C)C)C(C)C` [Example 24, N1,N6-di[(1S)-2-methyl-1-(methylcarbamoyl)propyl]-(2R,3R,4R,5R)-2,5-di[(4-(3-nitrophenyl)benzyl)oxy]-3,4-dihydroxyhexanediamide], the affinity on purified HIV proteinase, expressed as Ki, was 1.4 nM. Further, the EC50 with HIV-1 (setting [3]) was found to be 0.4 µg/mL (≈ 0.467 µM). Consider `O=C(N[C@H]1c2ccccc2C[C@H]1O)[C@H](OCc1ccc(F)cc1)[C@H](O)[C@@H](O)[C@@H](OCc1ccc(F)cc1)C(=O)N[C@H]1c2ccccc2C[C@H]1O` [Example 13, N1,N6-di[(1S,2R)-2-hydroxy-2,3-dihydro-1H-1-indenyl]-(2R,3R,4R,5R)-2,5-di(4-fluorobenzyloxy)-3,4-dihydroxyhexanediamide], for which, on purified HIV proteinase (setting [1]), the Ki was 0.07 nM. Besides, the 50% effective concentration (EC50) in the assay with HIV-1 (setting [2]) came out at 0.2 µg/mL (≈ 0.29 µM). Take `CNC(=O)C(NC(=O)C(OCc1ccc(F)cc1F)C(O)C(O)C(OCc1ccc(F)cc1F)C(=O)NC(C(=O)NC)C(C)C)C(C)C` [Example 20, N1,N6-di[(1S)-2-methyl-1-(methylcarbamoyl)propyl]-(2R,3R,4R,5R)-2,5-di[4-(2,4-difluorobenzyl)oxy]-3,4-dihydroxyhexanediamide]: the Ki on purified HIV proteinase (setting [1]) is 0.1 nM. In addition, the EC50 in the assay on HIV-1 (setting [2]) is 0.9 µg/mL (≈ 1.31 µM). As for `CNC(=O)C(NC(=O)C(OCc1ccc(-c2ccccn2)cc1)C(O)C(O)C(OCc1ccc(-c2ccccn2)cc1)C(=O)NC(C(=O)NC)C(C)C)C(C)C` [Example 22, N1,N6-di[(1S)-2-methyl-1-(methylcarbamoyl)propyl]-(2R,3R,4R,5R)-2.5-di[4-(2-pyridyl)benzyloxy]-3,4-dihydroxyhexanediamide], at purified HIV proteinase, the Ki came to 0.61 nM. In the assay on HIV-1 (setting [3]), this compound yielded an EC50 of 0.4 µg/mL (≈ 0.52 µM). Consider `CNC(=O)C(NC(=O)C(OCc1cccc(F)c1)C(O)C(O)C(OCc1cccc(F)c1)C(=O)NC(C(=O)NC)C(C)C)C(C)C` (centres unmarked) [Example 17], for which the Ki at purified HIV proteinase (setting [1]) came out at 2 nM. Besides, the EC50 in the assay on HIV-1 (setting [2]) was 0.8 µg/mL (≈ 1.23 µM).

As to `O=C(NC1c2ccccc2CC1O)C(OCc1ccccc1)C(O)C(O)C(OCc1ccccc1)C(=O)NC1c2ccccc2CC1O` [Example 10, N1,N6-di[(1S,2R)-2-hydroxy-2,3-dihydro-1H-1-indenyl]-(2R,3R,4R,5R)-2.5-di(benzyloxy)-3,4-dihydroxyhexanediamide], the Ki on purified HIV proteinase turned out to be 1.6 nM.

For `CNC(=O)[C@@H](NC(=O)[C@H](OCc1ccc(F)cc1)[C@H](O)[C@@H](O)[C@@H](OCc1ccc(F)cc1)C(=O)N[C@H](C(=O)NC)C(C)C)C(C)C` [Example 7, N1,N6-di[(1S)-2-methyl-1-(methylcarbamoyl)propyl]-(2R,3R,4R,5R)-2,5-di[(4-fluorobenzyl)oxy]-3,4-dihydroxyhexanediamide], at purified HIV proteinase (setting [1]), the Ki worked out at 2.3 nM. Turning to `CNC(=O)[C@@H](NC(=O)[C@H](OCc1ccccc1)[C@H](O)[C@@H](O)[C@@H](OCc1ccccc1)C(=O)N[C@H](C(=O)NC)C(C)C)C(C)C` [Example 1, N1,N6-di[(1S)-2-methyl-1-(methylcarbamoyl)propyl]-(2R,3R,4R,5R)-2,5-di(benzyloxy)-3,4-dihydroxyhexanediamide], the IC50 at purified HIV proteinase was 15 nM. Regarding `CNC(=O)[C@@H](NC(=O)[C@H](OCc1ccccc1C)[C@H](O)[C@@H](O)[C@@H](OCc1ccccc1C)C(=O)N[C@H](C(=O)NC)C(C)C)C(C)C` [Example 9, N1,N6-di[(1S)-2-methyl-1-(methylcarbamoyl)propyl]-(2R,3R,4R,5R)-2,5-di[(2-methylbenzyl)oxy]-3,4-dihydroxyhexanediamide], at purified HIV proteinase (setting [1]), the Ki was determined as 3.5 nM.
